Assay results reported in patent US9839632B2, “Methods and compositions using 4-amino-2-(2,6-dioxo-piperidine-3-yl)-isoindoline-1,3-dione for treatment and management of central nervous system cancers” (CELGENE CORPORATION, priority 2013, dated 2017).
Like-named read-outs stand apart in the source and are kept apart here.

Legend:
[1] = tested on: macrophages and NK cells in the CNS lymphoma microenvironment; experiment: Immunohistochemistry/immunofluorescence of CNS lymphoma microenvironment, OCI-LY10 model; type: in vivo, athymic mice; details: P<0.05 vs control
Source text: Immunohistochemistry (“IHC”) assessment for macrophages: Paraffin sections (10 μm thick) were fixed, blocked, and immunostained with the appropriate antibody: Iba-1 (BD Biosciences) for macrophages, Ym1 (Stemcell Technologies) as a marker for M2 polarization, iNOS (Calbiochem) as a marker for M1 polarization. Aperio ScanScope XT slide scanner and image analysis system (Aperio Spectrum, Vista, Calif.) were used for quantitative assessment of macrophages. Three equal-size (0.4 mM2) fields in macrophage-dense areas were selected in the contralateral brain and the tumor for counting. Data were shown as an average of the three fields.
Immunofluorescence for natural killer cells: Frozen sections (10 μm thick) were permeabilized with PBS-0.2% Triton X-100 for 5 min. After blocking with PBS-5% goat serum-0.02% Triton X-100 for 45 mins at 37° C., the sections were incubated overnight at 4° C. with Rat monoclonal CD335 antibody (a marker for NK cells, 1:200, Biolegend). After washing, sections were incubated with the Alexa Fluor 594 Goat anti-Rat IgG secondary antibody (1:1000, Life Technologies) at 37° C. for 1.5 h. Finally, Vectashield H-1200 mounting medium with DAPI (Vector Laboratories) was used to stain the nuclei. Images were obtained on a Zeiss LSM 510 META confocal microscope. Six equal-size (0.2 mM^2) fields in NK-dense areas were selected in the tumor for taking pictures. Fluorescence intensity data were generated by Zeiss LSM 510 and shown as an average of six fields.
Statistical analysis: One-way ANOVA was used to compare the difference between the groups at each time point. Two-way repeated measures ANOVA was used to analyze the interaction between the time and treatment. Survival analysis was performed by Kaplan Meier method. Kaplan Meier survival curves were generated using Prism4 software and the statistical difference between curves was derived with a log-rank test. P<0.05 was considered significant.

[2] = tested on: primary murine microglia cells; experiment: Polarization of IL4-treated primary murine microglia cells (immunofluorescence); type: cell-based; details: IL-4 20 ng/ml 48 hours then 10 ug/ml 48 hours
Protocol: Treatments: In experiments in which IL-4 was used to induce M2 polarization of macrophages, cells were treated with IL-4 (20 ng/ml) for 48 hours followed by treatment with 4-amino-2-(2,6-dioxo-piperidine-3-yl)-isoindoline-1,3-dione (10 ug/ml) or DMSO control for 48 hours. In triple cell culture experiments with lymphoma cells, macrophages, and NK cells, the treatment was with either DMSO or 4-amino-2-(2,6-dioxo-piperidine-3-yl)-isoindoline-1,3-dione (10 ug/ml) for 48 hours.
Immunofluorescence for analysis of macrophage polarization in cell culture experiments: Live cells were fixed in 10% formalin for 30 minutes at room temperature followed by permeabilization with PBS-0.2% Triton X-100 for 2 min. After blocking with PBS-5% goat serum-0.02% Triton X-100 for 30 minutes at 37° C., the cells were incubated overnight at 4° C. with rat monoclonal F4/80 antibody (for primary microglia cells, 1:200 Abcam), rat monoclonal CD11b (for U937, 1:200 Biolegend), rabbit polyclonal Ym1 antibody (for primary microglia cells and primary peritoneal macrophages, 1:200, Stemcell Technologies, Vancouver, Canada), rabbit polyclonal FXIII A antibody (for U937, 1:200, Abcam), mouse monoclonal p-STAT1 antibody (1:200, Abcam), rabbit polyclonal p-STAT6 antibody (1:200, Abcam) or rabbit iNOS antibody (1:200, Calbiochem). […]

[3] = fasted male CD-IGS rats, cited from earlier work; for F: PO 50 mg/kg vs IV 5 mg/kg
[4] = listed as 4-amino-2-(2,6-dioxo-piperidine-3-yl)-isoindoline-1,3-dione

For `Nc1cccc2c1C(=O)N(C1CCC(=O)NC1=O)C2=O` (centres unmarked) [Pomalidomide, 4-amino-2-(2,6-dioxo-piperidine-3-yl)-isoindoline-1,3-dione], the “CD335 positive NK cells in CNS tumors” value [1] was “significantly increased”, the “Ym1 expression (M2-polarized macrophages) in tumor” value [1] was “significantly decreased” and the “iNOS activity (M1-polarized macrophages) in tumor” value [1] was “increased”. For the same molecule, the “CD335 positive NK cells in CNS tumors” value [1, 4] was “significant increase”, the “Ym1 expression (M2-polarized macrophages) in tumor” value [1, 4] was “significant decrease” and the “iNOS activity (M1-polarized macrophages) in tumor” value [1, 4] was “significant increase”. The “brain macrophages (Iba-1 positive cells)” value ([1]; contralateral brain and tumor) was “significantly increased”, the “polarization status (FXIII A, pSTAT6 vs iNOS, pSTAT1 expression)” value [2] was “from M2 to M1” and the F [3] was 47.4%. For the same molecule, the F ([3]; listed as CC-4047) was 47.4 ± 15.2%, the “AUC(0-inf)” value ([3]; single IV 5 mg/kg, n = 5) was 7016 ± 1551 ng·h/mL and the CL ([3]; single IV 5 mg/kg, n = 5) was 12.3 mL/min/kg. For the same molecule, the T1/2 ([3]; single IV 5 mg/kg, n = 5) was 2.44 ± 0.8 h, the Vss ([3]; single IV 5 mg/kg, n = 5) was 1.75 L/kg and the “AUC(0-24)” value ([3]; single PO 50 mg/kg, n = 4) was 33155 ± 8561 ng·h/mL. For the same molecule, the Cmax ([3]; single PO 50 mg/kg, n = 4) was 3372 ± 758 ng/mL and the Tmax ([3]; single PO 50 mg/kg, n = 4) was 2.0 ± 0.0 h.
